# Measured values reported in publication PMC3097502, “Antitrypanosomal and Cytotoxic Activities of 22-Hydroxyclerosterol, a New Sterol from Allexis cauliflora (Violaceae)” (Scientia Pharmaceutica, 2011).
# Assays:
# [1] = target: PyK of Leishmania mexicana (Leishmania mexicana, UniProt Q27686); test: Enzymatic inhibition of PyK (L. mexicana); type: biochemical
# [2] = target: GAPDH of T. brucei (Trypanosoma brucei brucei, UniProt P22512); test: Enzymatic inhibition of GAPDH (T. brucei); type: biochemical
# [3] = target: rabbit muscle pyruvate kinase (PyK) (Oryctolagus cuniculus, UniProt P11974); test: Enzymatic inhibition of PyK (rabbit muscle); type: biochemical
# [4] = tested on: Trypanosoma brucei brucei bloodstream form (strain 427); test: Antitrypanosomal assay (LILIT, Alamar Blue, 72 h) on bloodstream forms; type: cell-based; settings: for ED50, growth of Trypanosoma brucei (strain 427): bloodstream form, 72 h incubation, Alamar Blue
# Protocol: (§1) Trypanosoma brucei brucei (strain 427) bloodstream forms were cultured in HMI-9 medium containing 10% heat-inactivated. The mammalian fibroblast cell line MRC-5 was grown in DMEM (Gibco) supplemented with 10% heat-inactivated FBS and extra glutamine. Cells were grown at 37 °C in humidified incubators in an atmosphere of 5% CO2 [13].
# (§2) The assay performed, the long incubation low inoculation test (LITIT), was previously described by Räz et al., 1997 [14] with minor modifications by Baltz et al., 1985 [15]. To evaluate the selectivity of the in vitro antitrypanosomal activity, in vitro cytotoxicity tests were also performed. The same general method was used in order to facilitate the comparison.
# (§3) The compounds were initially dissolved in DMSO at a concentration of 20 mg/ml and diluted with the medium. Series of dilution were done in 96-well plates; each dilution was tested in duplicate. Cells in suspension were thereafter added to each well at a density such as, after 72 h of incubation, in control wells the culture reached the end of logarithmic growth phase (T. brucei), or adhesive cells have formed a confluent monocellular film (mammal cells MRC-5). The highest concentration of DMSO was 0.5%. After 72 h of incubation, Alamar Blue, a marker of cell viability, was added in each well and fluorescence was quantified after a total incubation time of 76 h at an excitation wavelength of 530 nm and at an emission wavelength of 590 nm. ED50 values were calculated by linear interpolation. Assays with commercial drugs were also carried out in order to have reference values. All results represent average values obtained in at least three independent experiments, each experiment comprising a duplicate set of tests.
# [5] = target: PGI of T. brucei (Trypanosoma brucei brucei, UniProt P13377); test: Enzymatic inhibition of glycolytic enzyme PGI (T. brucei); type: biochemical; settings: for Ki’ PGI of T. brucei: binding to enzyme-substrate (F6P/PGI) complex
# [6] = tested on: MRC-5 mammalian cells (fibroblasts); test: Cytotoxicity assay (Alamar Blue, 72 h) on mammalian fibroblasts; type: cell-based; settings: 72 h incubation
# Protocol: as §1, §2, §3
# [7] = target: T1, PGI Rabbit muscle (Oryctolagus cuniculus, UniProt Q9N1E2); test: Enzymatic inhibition of PGI (rabbit muscle); type: biochemical; settings: n.i. = no inhibition observed at 50 μM
# T1 construct: Rabbit muscle; from tissue; host or cells: rabbit muscle
# Description: Tab. 3. Enzymatic inhibition (IC50, μM) | column: PGI / Rabbit muscle
# [8] = target: T2, GAPDH Rabbit muscle (Oryctolagus cuniculus, UniProt P46406); test: Enzymatic inhibition of GAPDH (rabbit muscle); type: biochemical; settings: n.i. = no inhibition observed at 50 μM
# T2 construct: Rabbit muscle; from tissue; host or cells: rabbit muscle
# Description: Tab. 3. Enzymatic inhibition (IC50, μM) | column: GAPDH / Rabbit muscle
# [9] = tested on: Trypanosoma brucei brucei bloodstream form (strain 427); set-up: method as in PMID 17637068; settings: cited from earlier work
# [10] = tested on: MRC-5 mammalian cells (fibroblasts); set-up: method as in PMID 17637068; settings: cited from earlier work
# [11] = n.i. = no inhibition observed at 50 μM
# PGI of T. brucei, sequence (P13377 whole entry): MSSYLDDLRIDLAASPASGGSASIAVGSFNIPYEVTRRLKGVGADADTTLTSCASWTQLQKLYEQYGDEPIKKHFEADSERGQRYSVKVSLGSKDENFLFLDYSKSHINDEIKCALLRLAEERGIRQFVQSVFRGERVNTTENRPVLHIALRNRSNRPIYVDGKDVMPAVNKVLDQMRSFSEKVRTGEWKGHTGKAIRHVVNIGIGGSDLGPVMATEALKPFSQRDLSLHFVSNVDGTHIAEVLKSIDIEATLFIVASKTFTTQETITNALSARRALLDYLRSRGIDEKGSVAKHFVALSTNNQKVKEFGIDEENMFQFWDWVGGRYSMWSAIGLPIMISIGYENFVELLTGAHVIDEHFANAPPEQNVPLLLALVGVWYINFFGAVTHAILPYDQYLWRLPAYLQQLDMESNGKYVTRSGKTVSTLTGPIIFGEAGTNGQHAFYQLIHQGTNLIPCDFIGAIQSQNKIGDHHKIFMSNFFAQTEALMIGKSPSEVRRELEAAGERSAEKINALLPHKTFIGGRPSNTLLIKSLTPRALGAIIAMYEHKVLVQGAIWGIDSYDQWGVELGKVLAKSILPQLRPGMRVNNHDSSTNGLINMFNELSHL
# PyK of Leishmania mexicana, sequence (Q27686 whole entry): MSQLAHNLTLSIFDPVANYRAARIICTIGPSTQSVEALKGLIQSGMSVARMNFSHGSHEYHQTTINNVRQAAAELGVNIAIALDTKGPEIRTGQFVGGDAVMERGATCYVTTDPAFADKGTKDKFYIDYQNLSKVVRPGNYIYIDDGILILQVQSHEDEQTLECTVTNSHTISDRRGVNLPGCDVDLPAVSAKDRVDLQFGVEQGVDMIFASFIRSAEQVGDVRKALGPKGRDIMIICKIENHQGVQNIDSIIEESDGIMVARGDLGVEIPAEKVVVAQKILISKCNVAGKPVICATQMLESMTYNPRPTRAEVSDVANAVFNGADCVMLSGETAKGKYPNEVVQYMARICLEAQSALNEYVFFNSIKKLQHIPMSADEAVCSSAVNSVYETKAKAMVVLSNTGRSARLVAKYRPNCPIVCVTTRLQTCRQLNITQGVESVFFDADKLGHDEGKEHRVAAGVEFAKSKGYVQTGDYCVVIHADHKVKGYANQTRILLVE
# rabbit muscle pyruvate kinase (PyK), sequence (P11974 whole entry): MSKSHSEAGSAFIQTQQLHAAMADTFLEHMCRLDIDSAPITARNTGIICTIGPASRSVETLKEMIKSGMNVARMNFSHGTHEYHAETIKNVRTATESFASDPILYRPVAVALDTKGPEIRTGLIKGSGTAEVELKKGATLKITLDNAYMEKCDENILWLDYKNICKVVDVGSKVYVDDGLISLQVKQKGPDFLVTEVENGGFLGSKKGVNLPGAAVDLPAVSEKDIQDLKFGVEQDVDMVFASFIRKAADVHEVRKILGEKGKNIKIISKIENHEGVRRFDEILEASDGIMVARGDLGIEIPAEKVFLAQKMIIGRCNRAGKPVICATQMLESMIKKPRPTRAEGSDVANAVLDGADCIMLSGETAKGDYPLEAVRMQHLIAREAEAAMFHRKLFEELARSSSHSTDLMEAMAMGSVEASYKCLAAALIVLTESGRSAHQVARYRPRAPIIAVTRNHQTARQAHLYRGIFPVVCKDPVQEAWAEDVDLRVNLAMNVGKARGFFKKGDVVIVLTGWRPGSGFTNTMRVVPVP
# GAPDH of T. brucei, sequence (P22512 whole entry): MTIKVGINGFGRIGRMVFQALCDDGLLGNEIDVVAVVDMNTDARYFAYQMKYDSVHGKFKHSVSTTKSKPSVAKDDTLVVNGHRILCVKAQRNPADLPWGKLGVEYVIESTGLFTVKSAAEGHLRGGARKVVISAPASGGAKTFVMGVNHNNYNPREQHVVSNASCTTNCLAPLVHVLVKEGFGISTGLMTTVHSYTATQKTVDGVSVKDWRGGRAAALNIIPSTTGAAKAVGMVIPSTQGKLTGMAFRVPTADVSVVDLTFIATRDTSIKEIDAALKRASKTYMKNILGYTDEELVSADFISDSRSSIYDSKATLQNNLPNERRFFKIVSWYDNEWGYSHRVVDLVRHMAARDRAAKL
# T2 sequence (P46406 whole entry): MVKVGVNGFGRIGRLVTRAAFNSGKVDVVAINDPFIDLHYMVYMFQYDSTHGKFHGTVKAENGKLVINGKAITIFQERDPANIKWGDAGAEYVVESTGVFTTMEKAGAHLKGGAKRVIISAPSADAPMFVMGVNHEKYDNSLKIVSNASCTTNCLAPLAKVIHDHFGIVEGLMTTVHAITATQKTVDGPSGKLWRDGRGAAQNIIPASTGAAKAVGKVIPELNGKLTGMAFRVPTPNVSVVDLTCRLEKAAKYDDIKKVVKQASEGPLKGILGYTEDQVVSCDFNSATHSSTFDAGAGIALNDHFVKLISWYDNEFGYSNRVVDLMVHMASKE
structure (smiles),measurement,setting,value
"C=C(C)[C@@H](CC)CC(O)[C@@H](C)[C@H]1CC[C@H]2[C@@H]3CC=C4C[C@@H](O)CC[C@]4(C)[C@H]3CC[C@]12C (stereo partly drawn) [Compound 1, (3β,24S)-Stigmasta-5,25-diene-3,22-diol]",IC50,[1],30 ± 5 µM
same,Ki,[1],24 ± 5 µM
same,Ki’ PyK of Leishmania mexicana,[1]; kinetic studies,65 ± 10 µM
same,type of inhibition of PyK of Leishmania mexicana,[1]; kinetic studies,mixed inhibitor
same,IC50,[2],30 ± 10 µM
same,melting point,,166 to 168 °C
same,Ki’ PyK of rabbit muscle,[3]; kinetic studies,26 ± 3 µM
same,type of inhibition of PyK of rabbit muscle,[3]; kinetic studies,uncompetitive inhibitor
same,"ED50, growth of Trypanosoma brucei (strain 427)",[4],1.56 µM
same,"fold more potent than compound 2 (ED50, T. brucei brucei growth)",[4]; ratio of ED50 values,86 fold
same,IC50,[5],30 ± 10 µM
same,affinity for F6P/PGI complex relative to affinity of natural substrate (F6P) for PGI,[5]; kinetic studies,76 fold
same,type of inhibition of PGI of T. brucei,[5]; kinetic studies,uncompetitive inhibitor
same,Ki’ PGI of T. brucei,[5]; kinetic studies,3 ± 1 µM
same,"ED50, Mammalian cells (MRC-5 fibroblasts)",[6],1.12 µM
"C=C(C)[C@@H](CC)CC[C@@H](C)[C@H]1CC[C@H]2[C@@H]3CC=C4C[C@@H](O)CC[C@]4(C)[C@H]3CC[C@]12C [Compound 2, (3β,24S)-Stigmasta-5,25-dien-3-ol]",IC50 PGI Rabbit muscle,[7],n.i.
same,IC50 PyK L. mexicana,[1]; [11],n.i.
same,IC50 GAPDH T. brucei,[2]; [11],n.i.
same,IC50 PyK Rabbit muscle,[3]; [11],n.i.
same,IC50 GAPDH Rabbit muscle,[8],n.i.
same,antitrypanosomal activity (known),[9],weak antitrypanosomal activity
same,"ED50, growth of Trypanosoma brucei (strain 427)",[4],134.34 µM
same,toxicity to mammalian cells (known),[10],non toxic to mammalian cells
same,IC50,[5],45 ± 10 µM
same,Ki,[5],10 ± 2 µM
same,type of inhibition of PGI of T. brucei,[5]; kinetic studies,mixed inhibitor
same,Ki’ PGI of T. brucei,[5]; kinetic studies,68 ± 5 µM
same,"ED50, Mammalian cells (MRC-5 fibroblasts)",[6],no effect
same,"ED50, Mammalian cells (MRC-5 fibroblasts)",[6]; listed as compound 2,non toxic on mammalian cells
